# Assay results from patent US8883788B2, “Fused heterocyclic ring compound” (Takeda Pharmaceutical Company Limited, priority 2010, dated 2014).
# Biological target: T1, human PDE10A enzyme (Homo sapiens, UniProt Q9Y233)
# T1 construct: Human PDE10A full-length gene was transfected into Sf9 or COS-7 cells; His-tag; made in house; host or cells: Sf9 or COS-7 cells
# Assay: PDE10A enzyme activity inhibition test (SPA)
# Type: biochemical
# Conditions: compound 1 μM, substrate [3H]cGMP, 60 min at room temperature, read-out: inhibition rate (%) (1 μM)
# Description: Human PDE10A full-length gene was transfected into Sf9 or COS-7 cells. The cells were disrupted and centrifuged, and human PDE10A enzyme was obtained from the residue. The enzyme extracted from Sf9 cells was partially purified using His-tag affinity column. The enzyme was stored at −70° C. until use. The PDE activity was measured using an SPA (Scintillation Proximity Assay) (GE Healthcare). To measure the inhibitory activity of the compound, 10 μL of serially diluted compound was reacted with 20 μL of PDE enzyme in an assay buffer (50 mM HEPES-NaOH, 8.3 mM MgCl2, 1.7 mM EGTA, 0.1% BSA (pH 7.4)) […] at room temperature. The final concentration of DMSO in the reaction mixture was 1 percent. The compounds were evaluated in duplicate in 96-well half-area plates (Corning). To start the reaction, 10 μL of substrate [^3H] cGMP (25 and 50 nM; GE Healthcare and PerkinElmer, respectively) was added to 40 μL. After 60 min of reaction at room temperature, yttrium SPA beads containing zinc sulphate were added (6 mg/mL, 20 μL) to terminate the reaction. After standing still for 1 hr, the measurement was performed using a scintillation counter (PerkinElmer) and the inhibition rate was calculated. The inhibition rate was calculated based on the control containing enzyme and DMSO as 0% and the control without enzyme as 100%.
# T1 sequence (Q9Y233 267-1055): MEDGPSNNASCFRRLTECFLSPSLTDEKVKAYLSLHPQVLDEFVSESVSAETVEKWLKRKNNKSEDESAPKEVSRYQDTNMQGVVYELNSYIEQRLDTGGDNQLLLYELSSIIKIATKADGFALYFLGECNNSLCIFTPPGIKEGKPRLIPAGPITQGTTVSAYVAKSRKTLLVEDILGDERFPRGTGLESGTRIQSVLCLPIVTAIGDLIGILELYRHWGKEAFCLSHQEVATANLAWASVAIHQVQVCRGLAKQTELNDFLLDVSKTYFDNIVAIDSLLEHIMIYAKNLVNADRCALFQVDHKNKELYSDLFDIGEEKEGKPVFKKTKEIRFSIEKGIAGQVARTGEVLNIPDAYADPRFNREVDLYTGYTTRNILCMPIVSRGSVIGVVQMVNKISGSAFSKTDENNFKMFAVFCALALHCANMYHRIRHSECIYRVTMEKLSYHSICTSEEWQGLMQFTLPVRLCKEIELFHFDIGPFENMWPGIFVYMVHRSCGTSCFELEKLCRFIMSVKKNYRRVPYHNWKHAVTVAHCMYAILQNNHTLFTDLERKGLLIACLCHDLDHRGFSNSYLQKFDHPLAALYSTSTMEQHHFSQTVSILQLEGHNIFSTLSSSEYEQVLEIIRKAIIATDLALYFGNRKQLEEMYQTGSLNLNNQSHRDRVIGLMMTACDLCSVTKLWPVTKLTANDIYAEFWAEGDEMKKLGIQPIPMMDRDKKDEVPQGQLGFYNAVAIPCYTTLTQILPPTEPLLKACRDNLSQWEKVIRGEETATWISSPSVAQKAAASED
row,SMILES,inhibition at 1 µM [%]
1,"Cn1cc(OCCCc2nc3ccccc3n2C)c(=O)c(-c2ccnn2-c2ccccc2)n1 [Example 1, 1-methyl-5-[3-(1-methyl-1H-benzimidazol-2-yl)propoxy]-3-(1-phenyl-1H-pyrazol-5-yl)pyridazin-4(1H)-one]",96
2,"Cn1cc(OCCN2CCn3c2nc2ccccc23)c(=O)c(-c2ccnn2-c2ccccc2)n1 [Example 2, 5-[2-(2,3-dihydro-1H-imidazo[1,2-a]benzimidazol-1-yl)ethoxy]-1-methyl-3-(1-phenyl-1H-pyrazol-5-yl)pyridazin-4(1H)-one]",101
3,"Cn1c(CCCOc2cn(CC3CC3)nc(-c3ccnn3-c3ccccc3)c2=O)nc2ccccc21 [Example 3, 1-(cyclopropylmethyl)-5-[3-(1-methyl-1H-benzimidazol-2-yl)propoxy]-3-(1-phenyl-1H-pyrazol-5-yl)pyridazin-4(1H)-one]",98
4,"O=c1c(OCCN2CCn3c2nc2ccccc23)cn(CC2CC2)nc1-c1ccnn1-c1ccccc1 [Example 4, 1-(cyclopropylmethyl)-5-[2-(2,3-dihydro-1H-imidazo[1,2-a]benzimidazol-1-yl)ethoxy]-3-(1-phenyl-1H-pyrazol-5-yl)pyridazin-4(1H)-one]",100
5,"Cn1nccc1-c1nn(-c2ccccc2)cc(OCCCc2nc3ccccc3n2C)c1=O [Example 5, 5-[3-(1-methyl-1H-benzimidazol-2-yl)propoxy]-3-(1-methyl-1H-pyrazol-5-yl)-1-phenylpyridazin-4(1H)-one]",95.4
6,"Cn1nccc1-c1nn(-c2ccccc2)cc(OCCN2CCn3c2nc2ccccc23)c1=O [Example 6, 5-[2-(2,3-dihydro-1H-imidazo[1,2-a]benzimidazol-1-yl)ethoxy]-3-(1-methyl-1H-pyrazol-5-yl)-1-phenylpyridazin-4(1H)-one]",97.2
7,"Cn1nccc1-c1nn(-c2ccccc2)cc(OCCc2ccc3ccccc3n2)c1=O [Example 7, 3-(1-methyl-1H-pyrazol-5-yl)-1-phenyl-5-(2-quinolin-2-ylethoxy)pyridazin-4(1H)-one]",96.8
8,"Cn1nccc1-c1nn(-c2ccccc2)cc(OCc2ccc3ccccc3n2)c1=O [Example 8, 3-(1-methyl-1H-pyrazol-5-yl)-1-phenyl-5-(quinolin-2-ylmethoxy)pyridazin-4(1H)-one]",68.4
9,"O=c1cnn(-c2cccc(C(F)(F)F)c2)cc1OCc1ccc2ccccc2n1 [Example 9, 5-(quinolin-2-ylmethoxy)-1-[3-(trifluoromethyl)phenyl]pyridazin-4(1H)-one]",6.5
10,"Cn1cc(OCCOc2nc3ccccc3n2C)c(=O)c(-c2ccnn2-c2ccccc2)n1 [Example 10, 1-methyl-5-{2-[(1-methyl-1H-benzimidazol-2-yl)oxy]ethoxy}-3-(1-phenyl-1H-pyrazol-5-yl)pyridazin-4(1H)-one]",95
11,"Cn1cc(OCCCc2cn3ccccc3n2)c(=O)c(-c2ccnn2-c2ccccc2)n1 [Example 11, 5-(3-imidazo[1,2-a]pyridin-2-ylpropoxy)-1-methyl-3-(1-phenyl-1H-pyrazol-5-yl)pyridazin-4(1H)-one]",100
12,"Cn1cc(OCCCc2nc3cccnc3n2C)c(=O)c(-c2ccnn2-c2ccccc2)n1 [Example 12, 1-methyl-5-[3-(3-methyl-3H-imidazo[4,5-b]pyridin-2-yl)propoxy]-3-(1-phenyl-1H-pyrazol-5-yl)pyridazin-4(1H)-one]",102

# Results, then the compound that gave them:
row,inhibition at 1 µM [%],SMILES
1,100,"Cn1c(CCCOc2cn(CC3CC3)nc(-c3ccnn3-c3ccccc3)c2=O)nc2cccnc21 [Example 13, 1-(cyclopropylmethyl)-5-[3-(3-methyl-3H-imidazo[4,5-b]pyridin-2-yl)propoxy]-3-(1-phenyl-1H-pyrazol-5-yl)pyridazin-4(1H)-one]"
2,98,"Cn1c(OCCOc2cn(CC3CC3)nc(-c3ccnn3-c3ccccc3)c2=O)nc2ccccc21 [Example 14, 1-(cyclopropylmethyl)-5-{2-[(1-methyl-1H-benzimidazol-2-yl)oxy]ethoxy}-3-(1-phenyl-1H-pyrazol-5-yl)pyridazin-4 (H)-one]"
3,13,"O=c1c(OCCOc2ccc3ccccc3n2)cn(CC2CC2)nc1-c1ccnn1-c1ccccc1 [Example 15, 1-(cyclopropylmethyl)-3-(1-phenyl-1H-pyrazol-5-yl)-5-[2-(quinolin-2-yloxy)ethoxy]pyridazin-4(1H)-one]"
4,98,"O=c1c(OCCCc2cn3ccccc3n2)cn(CC2CC2)nc1-c1ccnn1-c1ccccc1 [Example 16, 1-(cyclopropylmethyl)-5-(3-imidazo[1,2-a]pyridin-2-ylpropoxy)-3-(1-phenyl-1H-pyrazol-5-yl)pyridazin-4(1H)-one]"
5,60,"O=c1c(OCc2ccc3ccccc3n2)cn(CC2CC2)nc1-c1ccnn1-c1ccccc1 [Example 17, 1-(cyclopropylmethyl)-3-(1-phenyl-1H-pyrazol-5-yl)-5-(quinolin-2-ylmethoxy)pyridazin-4(1H)-one]"
6,20,"O=c1c(OCc2ccc3cccnc3c2)cn(CC2CC2)nc1-c1ccnn1-c1ccccc1 [Example 18, 1-(cyclopropylmethyl)-3-(1-phenyl-1H-pyrazol-5-yl)-5-(quinolin-7-ylmethoxy)pyridazin-4(1H)-one]"
7,94,"O=c1c(OCCn2ccn3ccnc23)cn(CC2CC2)nc1-c1ccnn1-c1ccccc1 [Example 19, 1-(cyclopropylmethyl)-5-[2-(1H-imidazo[1,2-a]imidazol-1-yl)ethoxy]-3-(1-phenyl-1H-pyrazol-5-yl)pyridazin-4(1H)-one]"
8,99,"Cn1c(CCCOc2cn(C3CCC3)nc(-c3ccnn3-c3ccccc3)c2=O)nc2ccccc21 [Example 20, 1-cyclobutyl-5-[3-(1-methyl-1H-benzimidazol-2-yl)propoxy]-3-(1-phenyl-1H-pyrazol-5-yl)pyridazin-4(1H)-one]"
9,107,"Cn1c(CCCOc2cn(C3CCC3)nc(-c3ccnn3-c3ccccc3)c2=O)nc2cccnc21 [Example 21, 1-cyclobutyl-5-[3-(3-methyl-3H-imidazo[4,5-b]pyridin-2-yl)propoxy]-3-(1-phenyl-1H-pyrazol-5-yl)pyridazin-4 (H)-one]"
10,98,"O=c1c(OCCN2CCn3c2nc2ccccc23)cn(C2CCC2)nc1-c1ccnn1-c1ccccc1 [Example 22, 1-cyclobutyl-5-[2-(2,3-dihydro-1H-imidazo[1,2-a]benzimidazol-1-yl)ethoxy]-3-(1-phenyl-1H-pyrazol-5-yl)pyridazin-4 (H)-one]"
11,100,"Cn1c(OCCOc2cn(C3CCC3)nc(-c3ccnn3-c3ccccc3)c2=O)nc2ccccc21 [Example 23, 1-cyclobutyl-5-{2-[(1-methyl-1H-benzimidazol-2-yl)oxy]ethoxy}-3-(1-phenyl-1H-pyrazol-5-yl)pyridazin-4(1H)-one]"
12,100,"O=c1c(OCCCc2cn3ccccc3n2)cn(C2CCC2)nc1-c1ccnn1-c1ccccc1 [Example 24, 1-cyclobutyl-5-(3-imidazo[1,2-a]pyridin-2-ylpropoxy)-3-(1-phenyl-1H-pyrazol-5-yl)pyridazin-4(1H)-one]"
13,96,"Cn1c(CCCOc2cn(CC(F)(F)F)nc(-c3ccnn3-c3ccccc3)c2=O)nc2ccccc21 [Example 25, 5-[3-(1-methyl-1H-benzimidazol-2-yl)propoxy]-3-(1-phenyl-1H-pyrazol-5-yl)-1-(2,2,2-trifluoroethyl)pyridazin-4(1H)-one]"
14,101,"Cn1c(CCCOc2cn(CC(F)(F)F)nc(-c3ccnn3-c3ccccc3)c2=O)nc2cccnc21 [Example 26, 5-[3-(3-methyl-3H-imidazo[4,5-b]pyridin-2-yl)propoxy]-3-(1-phenyl-1H-pyrazol-5-yl)-1-(2,2,2-trifluoroethyl)pyridazin-4(1H)-one]"
15,98,"O=c1c(OCCN2CCn3c2nc2ccccc23)cn(CC(F)(F)F)nc1-c1ccnn1-c1ccccc1 [Example 27, 5-[2-(2,3-dihydro-1H-imidazo[1,2-a]benzimidazol-1-yl)ethoxy]-3-(1-phenyl-1H-pyrazol-5-yl)-1-(2,2,2-trifluoroethyl)pyridazin-4(1H)-one]"
